According to paper PMC11671526, “β-caryophyllene sensitizes hepatocellular carcinoma cells to chemotherapeutics and inhibits cell malignancy through targeting MAPK signaling pathway” (Frontiers in Pharmacology, 2024):

System: HepG2 cells
Assay: RNA-seq transcriptome analysis of differentially expressed genes
Type: cell-based, human
Details: BCP vs control HepG2, RNA-seq
Description: The quality and concentration of RNA were examined by MOPS RNA electrophoresis and Eppendorf BioSpectrometer. The transcriptome analysis was performed by BGI-Wuhan China. The RNA-seq dataset of this study is accessible in the Gene Expression Omnibus (GEO) with an access number of GSE276099. The sequence library for each sample was prepared using the BGISEQ-500 platform with a 50-bp single-end (SE50) format. […]2.2.1) was used to align the clean reads to the reference genome and alignment of the clean reads to the reference genes was carried out using Bowtie2 (v2.4.5) ([Langmead and Salzberg, 2012]; [Kim et al., 2015]). Gene expression levels were calculated by RSEM (v1.3.1) ([Li and Dewey, 2011]). Analysis of differential gene expression was performed using edgeR in the Bioconductor software package ([Robinson et al., 2010]). Using a standard protocol, the RNA samples were also examined by reverse transcription and quantitative polymerase chain reaction (RT-qPCR). In brief, for reverse transcription, total RNA (1 μg) and gDNA wiper Mix were incubated at 42°C for 2 min. The samples were immediately incubated with a master mix containing 10 pmol/μL of poly (dT) primers at 37°C for 15 min and 85°C for 5 s. To detect the expression of specific genes by qPCR analysis, gene-specific primers (shown in Supplementary Table S1) were mixed with the ChamQ Universal SYBER qPCR Master Mix and the reaction was conducted using the Roche Lightcycler 480. The GAPDH value was used to normalize the results of each gene. The RNA-seq data of BCP-treated HepG2 cells were screened for DEGs. Gene symbols were turned into Enterz ID using the org.Hs.eg.db Bio-conductor R package. The cluster profiler (v4.6.2) package was used to perform the Kyoto Encyclopedia of Genes and Genomes (KEGG) and Gene Ontology (GO) enrichment analyses ([Wu et al., 2021]). Following the Transcript per million (TPM) data of the dataset, the line chart, and heatmap were plotted using ggplot2 and pheatmap R packages, respectively.

C=C1CC/C=C(\C)CC[C@@H]2[C@@H]1CC2(C)C [BCP, β-caryophyllene]
ABCA4 change: Up | ABCA4 logFC: 1.08 | ABHD16B change: Down | ABHD16B logFC: -0.7624 | ACCS change: Up | ACCS logFC: 0.7756 | ADAT3 change: Down | ADAT3 logFC: -0.6489 | ADGRE1 change: Down | ADGRE1 logFC: -1.049 | ADORA1 change: Down | ADORA1 logFC: -0.951 | ADORA2A change: Down | ADORA2A logFC: -0.7747 | ADRA2C change: Down | ADRA2C logFC: -0.8257 | AGT change: Up | AGT logFC: 0.6624 | AKR1C1 change: Down | AKR1C1 logFC: -0.9841 | ALOX12B change: Down | ALOX12B logFC: -0.7891 | ALOXE3 change: Down | ALOXE3 logFC: -1.101 | ANK1 change: Down | ANK1 logFC: -0.6258 | ANK2 change: Up | ANK2 logFC: 0.6135 | ANKRD63 change: Down | ANKRD63 logFC: -1.109 | ANO9 change: Up | ANO9 logFC: 0.6598 | AOX1 change: Down | AOX1 logFC: -0.7887 | ARHGAP25 change: Down | ARHGAP25 logFC: -0.9496 | ARTN change: Down | ARTN logFC: -0.6893 | B3GNT4 change: Down | B3GNT4 logFC: -0.8549 | BEST1 change: Up | BEST1 logFC: 0.7297 | BOC change: Down | BOC logFC: -1.001 | BOLA2B change: Down | BOLA2B logFC: -1.579 | BORCS8-MEF2B change: Up | BORCS8-MEF2B logFC: 0.7383 | C4orf50 change: Down | C4orf50 logFC: -0.84 | C7orf31 change: Up | C7orf31 logFC: 0.8499 | C14orf132 change: Down | C14orf132 logFC: -0.9885 | C15orf62 change: Down | C15orf62 logFC: -0.8151 | CACNA1D change: Up | CACNA1D logFC: 0.899 | CACNA1E change: Down | CACNA1E logFC: -0.8241 | CAMK2N2 change: Down | CAMK2N2 logFC: -0.8129 | CARMIL2 change: Down | CARMIL2 logFC: -0.818 | CDC25C change: Up | CDC25C logFC: 0.5857 | CENPE change: Up | CENPE logFC: 0.6854 | CERS4 change: Down | CERS4 logFC: -0.7861 | CHST6 change: Down | CHST6 logFC: -0.6638 | CILP2 change: Down | CILP2 logFC: -0.9152 | CLEC7A change: Down | CLEC7A logFC: -1.627 | CLGN change: Up | CLGN logFC: 0.5838 | COL9A2 change: Up | COL9A2 logFC: 0.6974 | CPAMD8 change: Up | CPAMD8 logFC: 0.9195 | CRYBG1 change: Down | CRYBG1 logFC: -0.6404 | CSF1R change: Up | CSF1R logFC: 1.132 | CTNNBIP1 change: Up | CTNNBIP1 logFC: 0.608 | CYP24A1 change: Up | CYP24A1 logFC: 0.7733 | CYP39A1 change: Down | CYP39A1 logFC: -0.966 | D2HGDH change: Up | D2HGDH logFC: 0.7244 | DEPTOR change: Down | DEPTOR logFC: -0.8053 | DOK7 change: Up | DOK7 logFC: 0.6123 | DPF1 change: Down | DPF1 logFC: -0.7852 | DUSP18 change: Down | DUSP18 logFC: -1.0326 | ELOVL6 change: Down | ELOVL6 logFC: -0.6915 | EN2 change: Down | EN2 logFC: -0.8276 | ENPP1 change: Up | ENPP1 logFC: 0.6168 | EPHA7 change: Up | EPHA7 logFC: 0.6078 | ERVV-2 change: Up | ERVV-2 logFC: 0.6706 | FAAH2 change: Up | FAAH2 logFC: 0.6861 | FAM72A change: Up | FAM72A logFC: 0.7318 | FAM167B change: Down | FAM167B logFC: -1.112 | FAM222A change: Down | FAM222A logFC: -0.6769 | FAR2 change: Down | FAR2 logFC: -0.7201 | FBXL22 change: Down | FBXL22 logFC: -1.204 | FDXACB1 change: Down | FDXACB1 logFC: -1.018 | FES change: Down | FES logFC: -1.129 | FGF11 change: Down | FGF11 logFC: -0.6148 | FGF12 change: Up | FGF12 logFC: 0.873 | FHIT change: Up | FHIT logFC: 0.955 | FICD change: Up | FICD logFC: 0.637 | FUT3 change: Down | FUT3 logFC: -0.9413 | GBP4 change: Down | GBP4 logFC: -1.639 | GGT2 change: Up | GGT2 logFC: 0.9035 | GJD3 change: Down | GJD3 logFC: -0.6605 | GPD1 change: Up | GPD1 logFC: 0.9345 | GPR3 change: Down | GPR3 logFC: -1.067 | GPR158 change: Up | GPR158 logFC: 0.961 | GRIP2 change: Down | GRIP2 logFC: -0.6933 | H3C6 change: Down | H3C6 logFC: -0.6656 | H4C8 change: Down | H4C8 logFC: -0.9939 | HBA1 change: Down | HBA1 logFC: -0.7699 | HPD change: Up | HPD logFC: 0.6168 | HPGD change: Down | HPGD logFC: -0.5852 | IFIT1 change: Down | IFIT1 logFC: -0.7944 | IFIT2 change: Down | IFIT2 logFC: -0.7214 | IL7R change: Down | IL7R logFC: -0.8033 | IMMP2L change: Up | IMMP2L logFC: 0.6542 | IQCG change: Up | IQCG logFC: 0.9618 | ISYNA1 change: Down | ISYNA1 logFC: -1.197 | JMJD7-PLA2G4B change: Up | JMJD7-PLA2G4B logFC: 0.8598 | KCP change: Up | KCP logFC: 1.479 | KHDC1 change: Down | KHDC1 logFC: -0.6694 | KRT34 change: Up | KRT34 logFC: 0.7278 | LOC100133315 change: Up | LOC100133315 logFC: 0.7126 | LOC102724200 change: Up | LOC102724200 logFC: 1.529 | LOC102724788 change: Up | LOC102724788 logFC: 0.903 | LOC107984638 change: Down | LOC107984638 logFC: -1.075 | LRRC56 change: Down | LRRC56 logFC: -0.591 | LRRK2 change: Down | LRRK2 logFC: -0.8118 | MAST4 change: Down | MAST4 logFC: -0.6435 | MCTP2 change: Up | MCTP2 logFC: 0.7514 | MORN4 change: Up | MORN4 logFC: 0.6216 | MVB12B change: Up | MVB12B logFC: 0.6743 | MXRA8 change: Down | MXRA8 logFC: -0.6329 | MYB change: Down | MYB logFC: -0.6747 | MYH14 change: Up | MYH14 logFC: 0.8331 | MYPN change: Up | MYPN logFC: 0.6564 | NCF2 change: Down | NCF2 logFC: -1.214 | NEBL change: Up | NEBL logFC: 0.5931 | NECAB2 change: Up | NECAB2 logFC: 0.9799 | NEIL3 change: Up | NEIL3 logFC: 0.6475 | NEK11 change: Up | NEK11 logFC: 0.7755 | NFE2 change: Down | NFE2 logFC: -0.6303 | NPHS1 change: Up | NPHS1 logFC: 1.189 | NPIPA3 change: Down | NPIPA3 logFC: -0.8968 | NPY4R change: Up | NPY4R logFC: 0.7533 | NR5A2 change: Down | NR5A2 logFC: -0.6198 | NR6A1 change: Down | NR6A1 logFC: -0.7194 | NYAP1 change: Down | NYAP1 logFC: -0.7161
